Measurements from US20060216699A1, “Peptides for the detection of HIV-1 group O” (priority 1998, published 2006).

Assays:
[1] = tested on: anti-HIV-1 group O antibodies present in human serum; test: ELISA: biotinylated peptide bound to streptavidin-coated wells, HIV-1 group O sera, anti-IgG:HRP, OPD, absorbance at 492 nm; assay type: binding
Protocol: Serological recognition of the peptide by HIV-1 group O sera. Peptide 147 was evaluated for its ability to be recognized by anti-HIV-1 group O antibodies present in human serum from infected individuals. All group O samples were confirmed to be positive for HIV-1 group O by reverse transcriptase-polymerase chain reaction (RT-PCR) amplification of viral gp41 sequences using O-specific primers. The identity of the PCR product was further confirmed by DNA sequencing.
This technique involves binding of the antigen to a solid phase, bringing the fluid to be tested into contact with the antigen-coated solid phase, washing away any unbound material, and then detecting bound antibodies with an enzyme-labeled second antibody. The presence of the enzyme is detected using a chromogenic or luminogenic substrate.
To evaluate biotinylated peptide 147, wells of a microtiter plate were coated with streptavidin at a concentration of 1 μg/ml in 50 mM carbonate buffer, pH 9.6 (200 μl/well). Excess unbound streptavidin was removed by washing several times with phosphate buffered saline (PBS). Biotinylated peptide 147 was dissolved in a minimal volume of pure DMSO and then diluted into PBS to a concentration of 0.5 μg/ml. Two hundred microliters of the peptide solution were added to each well and the peptide allowed to bind to the streptavidin. After removing unbound peptide by washing with PBS, serum samples obtained from HIV-1 group O-infected patients were added to the wells of the plate. After a suitable incubation period, unbound material was removed by washing with PBS. A dilution of an anti-IgG:horse radish peroxidase (HRP) conjugate was added to each well and incubated for 30 minutes at 37° C. Unbound material was removed by extensive washing. Substrate solution containing O-phenylenediamine (OPD) and H2O2 was added to each well and the plate was further incubated, protected from light. After a 30 minute incubation period at room temperature, the reaction was terminated by the addition of 50 μl of 4N H2SO4 and the absorbance of each well was read at 492 nm.
Peptide 147 was first tested by using undiluted (10 μl) serum samples. The sample measurements are in optical density (OD).
A panel of serially diluted group O sera was tested with peptide 147 in order to evaluate the sensitivity of an ELISA using this antigen. Streptavidin-coated plates were prepared and loaded with peptide 147 as before, and tested using the dilutional panels. In addition, in order to compare the performance of […] peptide 147 with that of a genuine group O sequence, a second peptide was synthesized (peptide 146) corresponding to the sequence of the DUR variant.
These peptides cover precisely the same region of gp41, and were tested in parallel.

type B sample = test: ELISA: biotinylated peptide bound to streptavidin-coated wells, type B sample; assay type: binding, human; conditions: undiluted
[2] = tested on: antibodies to HIV-1 group O; test: Chemiluminescent ELISA: serially diluted peptide on streptavidin-coated wells, serum ODS007b 1:60, anti-human IgG:HRP, luminol; assay type: binding; conditions: for luminescent units: serum ODS007b 1:60
Protocol: To compare the performance of peptide 147 to another genuine group O sequence, the peptide corresponding to the ANT70 sequence was synthesized (peptide 80). Peptides 147 and 80 were dissolved at the same concentration, serially diluted, and bound to streptavidin-coated wells. A 1:60 dilution of serum sample ODS007b (see Table 3) was added to all wells and incubated. After washing, an anti-human IgG:HRP conjugate was added, incubated, and the wells again thoroughly washed. In this case, a chemiluminescent substrate was used, consisting of luminol and a peracid salt. The emitted light was quantified using a luminometer. The results are tabulated in Table 4 and shown graphically in FIG. 2.

NQQRLNSWGCKGRIICYTSARWH (HIV Consensus) [peptide 147]
performance compared with a genuine group O sequence (peptide 146) ([1]; a number of the dilutional panels, in words): equaled or significantly exceeded that of a genuine group O sequence
binding of antibodies against the group O gp41 immunodominant region ([1]; highly diluted samples, in words): suitable antigen capable of binding antibodies against the group O gp41 immunodominant region
OD492 ([1]; negative control (uninfected blood donor), undiluted sample (10 μl)): 0.056 OD
OD492 ([1]; panel OP1, sample OP1A, dilution of original sample 2): 2.500 OD
OD492 ([1]; panel OP1, sample OP1B, dilution of original sample 4): 2.298 OD
OD492 ([1]; panel OP1, sample OP1C, dilution of original sample 8): 2.465 OD
OD492 ([1]; panel OP1, sample OP1D, dilution of original sample 16): 2.387 OD
OD492 ([1]; panel OP1, sample OP1E, dilution of original sample 32): 2.013 OD
OD492 ([1]; panel OP1, sample OP1F, dilution of original sample 64): 1.448 OD
OD492 ([1]; panel OP1, sample OP1G, dilution of original sample 128): 1.150 OD
OD492 ([1]; panel OP1, sample OP1H, dilution of original sample 256): 0.927 OD
OD492 ([1]; panel OP1, sample OP1I, dilution of original sample 512): 0.504 OD
OD492 ([1]; panel OP1, sample OP1J, dilution of original sample 1024): 0.053 OD
OD492 ([1]; panel OP2, sample OP2A, dilution of original sample 5): 2.236 OD
OD492 ([1]; panel OP2, sample OP2B, dilution of original sample 10): 2.320 OD
OD492 ([1]; panel OP2, sample OP2C, dilution of original sample 20): 2.157 OD
OD492 ([1]; panel OP2, sample OP2D, dilution of original sample 40): 1.844 OD
OD492 ([1]; panel OP2, sample OP2E, dilution of original sample 80): 1.061 OD
OD492 ([1]; panel OP2, sample OP2F, dilution of original sample 160): 0.689 OD
OD492 ([1]; panel OP2, sample OP2G, dilution of original sample 320): 0.327 OD
OD492 ([1]; panel OP2, sample OP2H, dilution of original sample 640): 0.184 OD
OD492 ([1]; panel OP2, sample OP2I, dilution of original sample 1280): 0.179 OD
OD492 ([1]; panel OP2, sample OP2J, dilution of original sample 2560): 0.090 OD
OD492 ([1]; panel OP3, sample OP3A, dilution of original sample 300): 0.229 OD
OD492 ([1]; panel OP3, sample OP3B, dilution of original sample 600): 0.373 OD
OD492 ([1]; panel OP3, sample OP3C, dilution of original sample 1200): 0.211 OD
OD492 ([1]; panel OP4, sample OP4A, dilution of original sample 100): 0.774 OD
OD492 ([1]; panel OP4, sample OP4B, dilution of original sample 200): 0.608 OD
OD492 ([1]; panel OP4, sample OP4C, dilution of original sample 400): 0.398 OD
OD492 ([1]; panel OP4, sample OP4D, dilution of original sample 800): 0.277 OD
OD492 ([1]; panel OP4, sample OP4E, dilution of original sample 1600): 0.040 OD
OD492 ([1]; panel OP5, sample OP5A, dilution of original sample 100): 1.624 OD
OD492 ([1]; panel OP5, sample OP5B, dilution of original sample 200): 1.027 OD
OD492 ([1]; panel OP5, sample OP5C, dilution of original sample 400): 0.225 OD
OD492 ([1]; panel OP5, sample OP5D, dilution of original sample 800): 0.302 OD
OD492 ([1]; panel OP6, sample OP6A, dilution of original sample 50): 0.667 OD
OD492 ([1]; panel OP7-2, sample OP7-2A, dilution of original sample 100): 2.081 OD
OD492 ([1]; panel OP7-2, sample OP7-2B, dilution of original sample 200): 1.817 OD
OD492 ([1]; panel OP7-2, sample OP7-2C, dilution of original sample 400): 1.346 OD
OD492 ([1]; panel OP7-2, sample OP7-2D, dilution of original sample 800): 0.847 OD
OD492 ([1]; sample ODS001, undiluted): 2.500 OD
OD492 ([1]; sample ODS002, undiluted): 2.500 OD
OD492 ([1]; sample ODS003, undiluted): 2.500 OD
OD492 ([1]; sample ODS004, undiluted): 2.500 OD
OD492 ([1]; sample ODS006, undiluted): 2.500 OD
OD492 ([1]; sample ODS007a, undiluted): 2.500 OD
OD492 ([1]; sample ODS007b, undiluted): 2.500 OD
OD492 ([1]; sample ODS009, undiluted): 2.500 OD
recognition by antibodies produced in response to an HIV-1 group O infection ([1]; undiluted specimens, in words): capable of recognizing peptide 147
OD492 (type B sample): 1.926 OD
detection of antibodies to HIV-1 group O compared with a naturally occurring isolate (peptide 80) ([2]; in words): comparable to that of a naturally occurring isolate
luminescent units ([2]; peptide 0.020 ug/ml): 0.619 luminescent units
luminescent units ([2]; peptide 0.039 ug/ml): 0.504 luminescent units
luminescent units ([2]; peptide 0.078 ug/ml): 0.740 luminescent units
luminescent units ([2]; peptide 0.156 ug/ml): 1.199 luminescent units
luminescent units ([2]; peptide 0.313 ug/ml): 2.090 luminescent units
luminescent units ([2]; peptide 0.625 ug/ml): 3.093 luminescent units
luminescent units ([2]; peptide 1.250 ug/ml): 2.885 luminescent units
luminescent units ([2]; peptide 2.500 ug/ml): 2.374 luminescent units
